This is an account of results in ChEMBL document CHEMBL5291721, “A preclinical secondary pharmacology resource illuminates target-adverse drug reaction associations of marketed drugs” (Nat Commun, 2023).

Some targets named below: Adenosine receptor A2a (Homo sapiens, UniProt P29274); Histamine H3 receptor (Homo sapiens, UniProt Q9Y5N1); Mu-type opioid receptor (Homo sapiens, UniProt P35372).
Assay [1] concerns the target 3',5'-cyclic-AMP phosphodiesterase 4A (Homo sapiens, UniProt P27815). The format is functional.
A further assay concerns the target Prothrombin (Homo sapiens, UniProt P00734). The format is functional.
Assay [2] addresses T1, Amine oxidase [flavin-containing] A (Homo sapiens, UniProt P21397).
T1 sequence (P21397 whole entry): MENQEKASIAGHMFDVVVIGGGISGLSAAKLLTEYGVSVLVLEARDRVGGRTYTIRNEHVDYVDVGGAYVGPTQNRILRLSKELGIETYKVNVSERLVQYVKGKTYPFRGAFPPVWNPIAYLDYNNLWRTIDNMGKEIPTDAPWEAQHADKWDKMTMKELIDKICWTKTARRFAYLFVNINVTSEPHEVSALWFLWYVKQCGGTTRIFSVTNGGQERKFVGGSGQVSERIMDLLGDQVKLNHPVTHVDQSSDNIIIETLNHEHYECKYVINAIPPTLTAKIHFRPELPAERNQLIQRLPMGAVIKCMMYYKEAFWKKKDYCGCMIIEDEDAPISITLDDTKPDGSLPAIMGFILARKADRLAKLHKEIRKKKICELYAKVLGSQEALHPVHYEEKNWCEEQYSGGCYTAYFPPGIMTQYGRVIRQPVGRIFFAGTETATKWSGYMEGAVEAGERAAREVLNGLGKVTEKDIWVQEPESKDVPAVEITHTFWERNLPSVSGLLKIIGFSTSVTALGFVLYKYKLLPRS
The format is functional.

Assay [3] deals with T2, Thromboxane A2 receptor (Homo sapiens, UniProt P21731).
T2 sequence (P21731 whole entry): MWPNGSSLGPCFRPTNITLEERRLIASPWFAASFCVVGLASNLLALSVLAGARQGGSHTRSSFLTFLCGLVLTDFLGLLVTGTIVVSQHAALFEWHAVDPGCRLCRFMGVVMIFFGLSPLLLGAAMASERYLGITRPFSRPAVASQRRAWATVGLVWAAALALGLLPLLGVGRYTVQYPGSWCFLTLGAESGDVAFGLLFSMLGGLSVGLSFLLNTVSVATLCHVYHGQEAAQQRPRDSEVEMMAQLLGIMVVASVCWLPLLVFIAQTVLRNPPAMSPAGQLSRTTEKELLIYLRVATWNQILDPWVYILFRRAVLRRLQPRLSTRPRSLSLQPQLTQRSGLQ
The format is functional, cell-based.

Assay [4] concerns the target T3, Alpha-2A adrenergic receptor (Homo sapiens, UniProt P08913).
T3 sequence (P08913 whole entry): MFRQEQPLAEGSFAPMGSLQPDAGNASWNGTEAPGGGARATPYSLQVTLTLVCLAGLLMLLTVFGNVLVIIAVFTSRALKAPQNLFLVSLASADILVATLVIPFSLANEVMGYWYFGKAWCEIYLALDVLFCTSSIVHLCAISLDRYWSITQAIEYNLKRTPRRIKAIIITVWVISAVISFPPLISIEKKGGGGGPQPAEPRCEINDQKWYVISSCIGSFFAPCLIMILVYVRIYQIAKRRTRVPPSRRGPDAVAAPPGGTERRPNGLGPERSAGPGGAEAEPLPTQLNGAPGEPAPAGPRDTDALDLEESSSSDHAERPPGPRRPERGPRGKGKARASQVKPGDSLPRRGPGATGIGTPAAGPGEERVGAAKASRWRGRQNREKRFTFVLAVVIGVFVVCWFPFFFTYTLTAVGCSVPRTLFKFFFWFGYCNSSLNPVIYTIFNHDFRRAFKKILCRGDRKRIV

The next assay deals with Acetylcholinesterase (Homo sapiens, UniProt P22303). The format is functional.
Assay [5] addresses T4, Muscarinic acetylcholine receptor M2 (Homo sapiens, UniProt P08172).
T4 sequence (P08172 whole entry): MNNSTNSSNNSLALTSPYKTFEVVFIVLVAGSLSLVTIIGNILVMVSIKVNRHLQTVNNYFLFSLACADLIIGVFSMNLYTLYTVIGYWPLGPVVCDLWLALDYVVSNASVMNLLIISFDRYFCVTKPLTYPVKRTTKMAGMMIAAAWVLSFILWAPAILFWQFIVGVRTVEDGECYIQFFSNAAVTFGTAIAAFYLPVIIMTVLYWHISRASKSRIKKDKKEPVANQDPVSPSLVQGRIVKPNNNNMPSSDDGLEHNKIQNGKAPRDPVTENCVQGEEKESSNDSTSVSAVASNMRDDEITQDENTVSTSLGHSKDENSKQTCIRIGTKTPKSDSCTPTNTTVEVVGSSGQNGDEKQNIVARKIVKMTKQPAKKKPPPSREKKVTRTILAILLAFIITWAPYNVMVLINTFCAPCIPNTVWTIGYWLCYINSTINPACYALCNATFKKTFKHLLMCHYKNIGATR

The target of assay [6] is 5-hydroxytryptamine receptor 2B (Homo sapiens, UniProt P41595). The class given is functional, cell-based.
For assay [7], the target named is T5, 5-hydroxytryptamine receptor 1A (Homo sapiens, UniProt P08908).
T5 sequence (P08908 whole entry): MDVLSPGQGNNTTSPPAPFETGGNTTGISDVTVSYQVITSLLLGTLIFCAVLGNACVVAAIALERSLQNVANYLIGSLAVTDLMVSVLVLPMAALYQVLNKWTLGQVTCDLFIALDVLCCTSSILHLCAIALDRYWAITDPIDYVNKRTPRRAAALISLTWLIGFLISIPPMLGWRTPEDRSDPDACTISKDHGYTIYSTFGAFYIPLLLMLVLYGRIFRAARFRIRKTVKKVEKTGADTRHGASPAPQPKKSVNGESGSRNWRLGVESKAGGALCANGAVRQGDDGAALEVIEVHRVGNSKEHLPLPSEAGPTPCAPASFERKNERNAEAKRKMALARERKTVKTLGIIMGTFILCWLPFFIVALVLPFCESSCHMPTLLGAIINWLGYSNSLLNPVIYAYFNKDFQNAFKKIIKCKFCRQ

Assay [8] deals with Sodium-dependent dopamine transporter (Homo sapiens, UniProt Q01959).
For assay [9], the target named is T2, Thromboxane A2 receptor. The format is functional, cell-based. This is another data set of the same source.
Assay [10] concerns the target cGMP-inhibited 3',5'-cyclic phosphodiesterase 3A (Homo sapiens, UniProt Q14432). The class given is functional.
For assay [11], the target named is Voltage-gated inwardly rectifying potassium channel KCNH2 (Homo sapiens, UniProt Q12809). The format is functional.

Each structure is given as a SMILES string.
Further: assay procedure not described here.

Sequence of Histamine H3 receptor (Q9Y5N1 whole entry): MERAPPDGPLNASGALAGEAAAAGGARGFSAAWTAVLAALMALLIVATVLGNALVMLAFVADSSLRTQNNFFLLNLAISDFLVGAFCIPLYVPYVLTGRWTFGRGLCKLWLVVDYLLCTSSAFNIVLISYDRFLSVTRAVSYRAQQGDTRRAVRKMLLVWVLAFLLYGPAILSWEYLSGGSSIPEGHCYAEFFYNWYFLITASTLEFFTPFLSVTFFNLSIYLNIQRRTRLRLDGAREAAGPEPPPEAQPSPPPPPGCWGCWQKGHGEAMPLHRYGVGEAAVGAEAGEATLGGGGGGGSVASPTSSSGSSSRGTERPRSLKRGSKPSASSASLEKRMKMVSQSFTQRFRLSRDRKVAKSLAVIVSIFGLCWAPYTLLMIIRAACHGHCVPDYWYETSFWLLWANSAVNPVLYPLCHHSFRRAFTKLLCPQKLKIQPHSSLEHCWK
Sequence of 5-hydroxytryptamine receptor 2B (P41595 whole entry): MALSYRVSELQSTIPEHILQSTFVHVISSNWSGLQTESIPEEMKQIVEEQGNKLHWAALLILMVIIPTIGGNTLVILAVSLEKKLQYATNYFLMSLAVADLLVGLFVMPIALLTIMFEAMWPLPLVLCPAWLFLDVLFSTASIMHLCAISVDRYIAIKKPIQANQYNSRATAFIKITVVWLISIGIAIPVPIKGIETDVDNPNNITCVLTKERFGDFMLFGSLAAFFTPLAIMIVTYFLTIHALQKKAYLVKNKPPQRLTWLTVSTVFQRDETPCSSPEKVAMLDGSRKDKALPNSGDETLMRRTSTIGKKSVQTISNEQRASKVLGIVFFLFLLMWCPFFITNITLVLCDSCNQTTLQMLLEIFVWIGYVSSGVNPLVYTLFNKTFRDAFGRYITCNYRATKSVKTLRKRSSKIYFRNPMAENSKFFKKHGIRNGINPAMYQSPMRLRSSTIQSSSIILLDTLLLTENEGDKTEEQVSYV
Sequence of Acetylcholinesterase (P22303 whole entry): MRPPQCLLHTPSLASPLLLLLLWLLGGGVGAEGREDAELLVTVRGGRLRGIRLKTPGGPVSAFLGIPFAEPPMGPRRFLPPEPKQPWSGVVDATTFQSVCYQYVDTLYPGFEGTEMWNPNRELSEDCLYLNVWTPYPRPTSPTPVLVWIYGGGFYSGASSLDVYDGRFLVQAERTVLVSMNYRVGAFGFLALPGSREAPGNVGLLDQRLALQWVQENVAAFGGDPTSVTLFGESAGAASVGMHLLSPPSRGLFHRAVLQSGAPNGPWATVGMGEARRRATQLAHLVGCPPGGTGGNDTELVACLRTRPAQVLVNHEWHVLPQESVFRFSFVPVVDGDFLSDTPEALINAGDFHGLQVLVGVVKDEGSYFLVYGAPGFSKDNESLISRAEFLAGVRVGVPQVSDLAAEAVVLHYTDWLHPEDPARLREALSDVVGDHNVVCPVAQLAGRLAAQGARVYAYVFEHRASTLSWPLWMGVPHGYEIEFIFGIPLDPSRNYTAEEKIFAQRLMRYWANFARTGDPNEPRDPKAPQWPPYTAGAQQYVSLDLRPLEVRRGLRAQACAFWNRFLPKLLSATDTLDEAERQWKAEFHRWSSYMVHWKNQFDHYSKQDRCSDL
Sequence of Mu-type opioid receptor (P35372 whole entry): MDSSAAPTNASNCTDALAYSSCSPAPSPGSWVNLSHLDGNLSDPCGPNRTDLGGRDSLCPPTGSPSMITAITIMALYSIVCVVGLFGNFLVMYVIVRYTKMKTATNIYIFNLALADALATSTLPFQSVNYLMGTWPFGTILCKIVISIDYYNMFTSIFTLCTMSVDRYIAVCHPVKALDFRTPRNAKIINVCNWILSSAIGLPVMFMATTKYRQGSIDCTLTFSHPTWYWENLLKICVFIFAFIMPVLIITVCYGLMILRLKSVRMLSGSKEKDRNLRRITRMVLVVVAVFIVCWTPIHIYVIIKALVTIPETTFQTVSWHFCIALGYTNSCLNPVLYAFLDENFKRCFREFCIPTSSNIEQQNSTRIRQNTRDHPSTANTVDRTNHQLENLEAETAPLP
Sequence of 3',5'-cyclic-AMP phosphodiesterase 4A (P27815 whole entry): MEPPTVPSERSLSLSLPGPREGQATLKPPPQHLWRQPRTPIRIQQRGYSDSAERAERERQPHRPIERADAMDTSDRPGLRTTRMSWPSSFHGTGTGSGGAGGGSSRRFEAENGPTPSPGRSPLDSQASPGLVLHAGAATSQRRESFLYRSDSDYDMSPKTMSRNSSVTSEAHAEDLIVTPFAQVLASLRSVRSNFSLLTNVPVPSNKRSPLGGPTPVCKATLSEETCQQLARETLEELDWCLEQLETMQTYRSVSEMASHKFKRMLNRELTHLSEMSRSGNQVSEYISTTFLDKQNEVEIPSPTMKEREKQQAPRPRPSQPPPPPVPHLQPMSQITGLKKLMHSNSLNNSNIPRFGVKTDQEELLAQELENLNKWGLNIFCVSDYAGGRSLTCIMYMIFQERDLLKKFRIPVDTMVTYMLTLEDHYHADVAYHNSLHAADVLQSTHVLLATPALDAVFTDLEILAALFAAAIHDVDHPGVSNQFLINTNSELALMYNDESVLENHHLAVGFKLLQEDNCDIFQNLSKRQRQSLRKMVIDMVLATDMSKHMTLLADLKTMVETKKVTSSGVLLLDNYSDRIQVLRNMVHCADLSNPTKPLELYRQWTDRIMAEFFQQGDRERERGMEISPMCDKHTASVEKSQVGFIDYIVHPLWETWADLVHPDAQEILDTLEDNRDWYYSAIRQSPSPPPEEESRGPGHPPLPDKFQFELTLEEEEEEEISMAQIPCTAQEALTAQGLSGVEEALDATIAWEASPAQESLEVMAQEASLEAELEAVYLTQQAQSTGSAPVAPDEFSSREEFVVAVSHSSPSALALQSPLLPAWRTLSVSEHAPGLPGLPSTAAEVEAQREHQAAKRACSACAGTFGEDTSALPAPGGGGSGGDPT
Sequence of Sodium-dependent dopamine transporter (Q01959 whole entry): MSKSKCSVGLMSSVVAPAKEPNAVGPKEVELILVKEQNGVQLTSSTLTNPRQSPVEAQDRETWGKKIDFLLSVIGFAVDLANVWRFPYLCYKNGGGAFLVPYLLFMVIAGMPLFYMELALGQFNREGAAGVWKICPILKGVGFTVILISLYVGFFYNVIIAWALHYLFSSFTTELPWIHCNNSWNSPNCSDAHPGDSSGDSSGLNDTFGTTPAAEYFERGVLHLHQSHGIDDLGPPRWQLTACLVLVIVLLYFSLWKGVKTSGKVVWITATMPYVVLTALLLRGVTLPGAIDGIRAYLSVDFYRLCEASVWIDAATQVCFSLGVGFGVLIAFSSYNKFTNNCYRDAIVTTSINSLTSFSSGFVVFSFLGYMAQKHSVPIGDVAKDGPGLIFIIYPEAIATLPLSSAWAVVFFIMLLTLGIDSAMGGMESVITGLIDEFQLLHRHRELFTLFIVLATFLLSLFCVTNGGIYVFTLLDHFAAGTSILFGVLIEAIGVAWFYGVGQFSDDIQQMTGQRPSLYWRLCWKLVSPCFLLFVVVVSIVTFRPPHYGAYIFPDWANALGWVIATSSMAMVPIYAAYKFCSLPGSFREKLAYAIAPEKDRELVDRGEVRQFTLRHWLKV
Sequence of Adenosine receptor A2a (P29274 whole entry): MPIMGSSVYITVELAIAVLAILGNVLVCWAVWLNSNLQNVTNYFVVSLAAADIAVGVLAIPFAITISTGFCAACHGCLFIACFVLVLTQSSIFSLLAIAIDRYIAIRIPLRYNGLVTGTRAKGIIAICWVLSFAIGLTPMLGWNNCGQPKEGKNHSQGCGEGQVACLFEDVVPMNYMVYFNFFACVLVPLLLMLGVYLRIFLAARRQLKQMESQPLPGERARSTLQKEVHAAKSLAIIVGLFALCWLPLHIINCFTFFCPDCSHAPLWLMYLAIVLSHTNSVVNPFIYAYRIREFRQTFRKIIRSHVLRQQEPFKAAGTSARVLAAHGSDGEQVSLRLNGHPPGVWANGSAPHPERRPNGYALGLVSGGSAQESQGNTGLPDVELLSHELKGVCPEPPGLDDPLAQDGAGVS
Sequence of Voltage-gated inwardly rectifying potassium channel KCNH2 (Q12809 whole entry): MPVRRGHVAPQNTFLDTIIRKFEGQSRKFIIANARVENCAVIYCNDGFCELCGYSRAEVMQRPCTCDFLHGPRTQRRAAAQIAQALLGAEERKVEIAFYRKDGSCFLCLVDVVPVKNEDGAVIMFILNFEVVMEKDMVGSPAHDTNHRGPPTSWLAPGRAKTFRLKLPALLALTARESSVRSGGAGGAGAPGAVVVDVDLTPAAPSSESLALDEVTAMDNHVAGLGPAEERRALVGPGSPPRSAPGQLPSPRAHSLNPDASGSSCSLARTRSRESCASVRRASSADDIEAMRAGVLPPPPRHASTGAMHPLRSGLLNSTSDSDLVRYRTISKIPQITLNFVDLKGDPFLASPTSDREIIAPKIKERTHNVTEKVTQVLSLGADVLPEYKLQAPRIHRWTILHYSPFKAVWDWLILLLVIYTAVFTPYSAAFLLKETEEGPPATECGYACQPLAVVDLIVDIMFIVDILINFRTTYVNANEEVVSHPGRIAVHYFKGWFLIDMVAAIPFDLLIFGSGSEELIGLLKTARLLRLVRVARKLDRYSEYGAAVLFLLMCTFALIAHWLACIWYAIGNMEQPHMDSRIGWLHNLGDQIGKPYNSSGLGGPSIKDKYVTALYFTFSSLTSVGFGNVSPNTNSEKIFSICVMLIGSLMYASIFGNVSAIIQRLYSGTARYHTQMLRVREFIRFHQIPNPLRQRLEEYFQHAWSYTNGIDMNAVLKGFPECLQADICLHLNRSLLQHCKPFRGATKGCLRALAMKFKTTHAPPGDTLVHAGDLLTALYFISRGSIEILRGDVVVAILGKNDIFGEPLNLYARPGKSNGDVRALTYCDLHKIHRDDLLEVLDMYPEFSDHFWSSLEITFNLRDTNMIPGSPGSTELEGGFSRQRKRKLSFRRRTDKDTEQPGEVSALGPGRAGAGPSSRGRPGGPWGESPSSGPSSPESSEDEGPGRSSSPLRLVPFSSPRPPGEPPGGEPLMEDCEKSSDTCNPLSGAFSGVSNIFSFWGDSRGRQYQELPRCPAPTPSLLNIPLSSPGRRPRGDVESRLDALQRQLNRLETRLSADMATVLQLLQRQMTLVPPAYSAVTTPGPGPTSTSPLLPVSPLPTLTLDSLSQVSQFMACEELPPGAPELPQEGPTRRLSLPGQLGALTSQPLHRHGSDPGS

For the compound `O=C(/C=C/c1cccc(S(=O)(=O)Nc2ccccc2)c1)NO` [BELINOSTAT], the AC50 is 23.7 µM in assay [1]; > 30 µM on Prothrombin; > 30 µM in [2]; > 30 µM at Thromboxane A2 receptor [3]; > 30 µM in assay [4]; > 30 µM on Adenosine receptor A2a. Also, the AC50 (on Acetylcholinesterase; in [5]; in assay [6]; on Histamine H3 receptor; in [7]; in assay [8]) was > 30 µM throughout. Further, the AC50 (at Thromboxane A2 receptor [9]; at Mu-type opioid receptor; in assay [10]) was > 30 µM throughout.

`CC(O)(CS(=O)(=O)c1ccc(F)cc1)C(=O)Nc1ccc(C#N)c(C(F)(F)F)c1` (centres undefined) [BICALUTAMIDE]: the AC50 in assay [11] is > 30 µM; in assay [1], > 30 µM; on Prothrombin, > 30 µM; in [2], > 30 µM; at Thromboxane A2 receptor [3], > 3 µM; in [4], > 30 µM. Besides, the concentration at half-maximal activity (AC50) (at Adenosine receptor A2a; at Acetylcholinesterase; in assay [5]; in assay [6]; on Histamine H3 receptor; in assay [7]) was > 30 µM throughout. Also, the concentration at half-maximal activity (AC50) was > 30 µM in [8], > 10 µM on Thromboxane A2 receptor [9], > 10 µM at Mu-type opioid receptor and > 30 µM in assay [10].

Turning to `CC(=O)O[C@]1(C(C)=O)CC[C@H]2[C@@H]3C=C(Cl)C4=CC(=O)[C@@H]5C[C@@H]5[C@]4(C)[C@H]3CC[C@@]21C` [CYPROTERONE ACETATE], the AC50 in assay [11] was > 30 µM; in assay [1], > 30 µM; on Prothrombin it was > 30 µM; in assay [2] it was > 30 µM; at Thromboxane A2 receptor [3] it was > 3 µM; in [4] it was > 30 µM. For the same compound, the AC50 at Adenosine receptor A2a is > 30 µM; on Acetylcholinesterase, > 30 µM; in [5] it was 9.17 µM; in assay [6] it was > 30 µM; at Histamine H3 receptor it was > 30 µM; in assay [7], > 30 µM. Further, the AC50 (in assay [8]; at Thromboxane A2 receptor [9]; on Mu-type opioid receptor; in assay [10]) was > 30 µM throughout.

In the case of `C[C@@H]1C[C@H]2[C@@H]3C[C@H](F)C4=CC(=O)C=C[C@]4(C)[C@@]3(F)[C@@H](O)C[C@]2(C)[C@@]1(OC(=O)c1ccco1)C(=O)SCF` [FLUTICASONE FUROATE], the concentration at half-maximal activity (AC50) (in assay [11]; in assay [1]; at Prothrombin; in assay [2]; on Thromboxane A2 receptor [3]; in [4]) was > 30 µM throughout. Moreover, the half-maximal activity concentration (AC50) was > 10 µM on Adenosine receptor A2a; > 30 µM on Acetylcholinesterase; > 30 µM in [5]; > 30 µM in [6]; > 30 µM at Histamine H3 receptor; > 30 µM in assay [7]. Also, the AC50 (in assay [8]; at Thromboxane A2 receptor [9]; at Mu-type opioid receptor; in assay [10]) was > 30 µM throughout.

For the compound `COC(=O)[C@H]1[C@H]2C[C@@H]3c4[nH]c5cc(OC)ccc5c4CCN3C[C@H]2C[C@@H](OC(=O)c2cc(OC)c(OC)c(OC)c2)[C@@H]1OC` [RESERPINE], the half-maximal activity concentration (AC50) in [11] was 1.46 µM; in [1], > 3 µM; on Prothrombin, > 30 µM; in [2] it was > 30 µM; on Thromboxane A2 receptor [3], > 30 µM; in assay [4], > 30 µM. Moreover, the concentration at half-maximal activity (AC50) (on Adenosine receptor A2a; on Acetylcholinesterase; in assay [5]; in assay [6]; at Histamine H3 receptor; in assay [7]) was > 30 µM each time. For the same compound, the AC50 was 29.3 µM in assay [8], > 30 µM on Thromboxane A2 receptor [9], > 30 µM at Mu-type opioid receptor and > 3 µM in assay [10].

One may read the AC50 as the concentration at which the activity in the assay is half-maximal. A lower AC50 goes with activity at low concentration.
